{
  "source": "patent US4826856A",
  "about": "“Calcium antagonistic dihydropyridine derivative” (Yason s.r.l., priority 1985, dated 1989)",
  "key": {"[1]": {"test_system": "SHR-SP", "test": "Effect on blood pressure in 6 month old SHR-SP (intraduodenal)", "format": "in vivo, rat", "design": "DBP (dyastolic blood pressure) / MBP (mean blood pressure) / SBP (systolic blood pressure) / S-D (difference between systolic and diastolic blood pressure): unit not given here", "details": "15 mg/kg intraduodenal", "description": "Comparative effect of YS 201 on 3 month old rats and 6 month old SHR-SP"}, "[2]": {"test_system": "volunteers", "test": "Clinical tolerance of oral treatment in volunteers", "format": "in vivo, human", "details": "oral", "experimental": "The study was performed in 4 male subjects aged 26-43 years.\nEach volunteer received one capsule of 20 mg of YS 201 with a glass of water.\nThe same four volunteers, after the first administration were treated with increasing doses of YS 201: 30-40-50 mg."}},
  "data": [
    {"compound": "CCOC(=O)C1=C(C)NC(C)=C(C(=O)OCCN2CCCCC2)C1c1cccc([N+](=O)[O-])c1", "note": "(stereo not drawn) [YS 201, ethyl-(β-piperidinoethyl)-2,6-dimethyl-4-(3-nitrophenyl)-1,4-dihydropyridine-3,5-dicarboxylate]", "values": [
      {"measurement": "duration of blood pressure effect", "setting": "[1]", "value": 4, "unit": "h"},
      {"measurement": "DBP (dyastolic blood pressure)", "setting": "[1]; 0 min (baseline)", "value": 17.5},
      {"measurement": "HR (heart rate)", "setting": "[1]; 0 min (baseline)", "value": 360, "unit": "beats/min"},
      {"measurement": "MBP (mean blood pressure)", "setting": "[1]; 0 min (baseline)", "value": 20.0},
      {"measurement": "S-D (difference between systolic and diastolic blood pressure)", "setting": "[1]; 0 min (baseline)", "value": 7.5},
      {"measurement": "SBP (systolic blood pressure)", "setting": "[1]; 0 min (baseline)", "value": 25.0},
      {"measurement": "DBP (dyastolic blood pressure)", "setting": "[1]; +1 min", "value": 17.0},
      {"measurement": "HR (heart rate)", "setting": "[1]; +1 min", "value": 360, "unit": "beats/min"},
      {"measurement": "MBP (mean blood pressure)", "setting": "[1]; +1 min", "value": 19.3},
      {"measurement": "S-D (difference between systolic and diastolic blood pressure)", "setting": "[1]; +1 min", "value": 7.0},
      {"measurement": "SBP (systolic blood pressure)", "setting": "[1]; +1 min", "value": 24.0},
      {"measurement": "DBP (dyastolic blood pressure)", "setting": "[1]; +2 min", "value": 15.0},
      {"measurement": "HR (heart rate)", "setting": "[1]; +2 min", "value": 360, "unit": "beats/min"},
      {"measurement": "MBP (mean blood pressure)", "setting": "[1]; +2 min", "value": 17.5},
      {"measurement": "S-D (difference between systolic and diastolic blood pressure)", "setting": "[1]; +2 min", "value": 7.5},
      {"measurement": "SBP (systolic blood pressure)", "setting": "[1]; +2 min", "value": 22.5},
      {"measurement": "DBP (dyastolic blood pressure)", "setting": "[1]; +5 min", "value": 16.0},
      {"measurement": "HR (heart rate)", "setting": "[1]; +5 min", "value": 360, "unit": "beats/min"},
      {"measurement": "MBP (mean blood pressure)", "setting": "[1]; +5 min", "value": 18.7},
      {"measurement": "S-D (difference between systolic and diastolic blood pressure)", "setting": "[1]; +5 min", "value": 8.0},
      {"measurement": "SBP (systolic blood pressure)", "setting": "[1]; +5 min", "value": 24.0},
      {"measurement": "DBP (dyastolic blood pressure)", "setting": "[1]; +10 min", "value": 13.5},
      {"measurement": "HR (heart rate)", "setting": "[1]; +10 min", "value": 360, "unit": "beats/min"},
      {"measurement": "MBP (mean blood pressure)", "setting": "[1]; +10 min", "value": 16.2},
      {"measurement": "S-D (difference between systolic and diastolic blood pressure)", "setting": "[1]; +10 min", "value": 8.0},
      {"measurement": "SBP (systolic blood pressure)", "setting": "[1]; +10 min", "value": 21.5},
      {"measurement": "DBP (dyastolic blood pressure)", "setting": "[1]; +15 min", "value": 13.0},
      {"measurement": "HR (heart rate)", "setting": "[1]; +15 min", "value": 360, "unit": "beats/min"},
      {"measurement": "MBP (mean blood pressure)", "setting": "[1]; +15 min", "value": 15.7},
      {"measurement": "S-D (difference between systolic and diastolic blood pressure)", "setting": "[1]; +15 min", "value": 8.0},
      {"measurement": "SBP (systolic blood pressure)", "setting": "[1]; +15 min", "value": 21.0},
      {"measurement": "DBP (dyastolic blood pressure)", "setting": "[1]; +30 min", "value": 11.0},
      {"measurement": "HR (heart rate)", "setting": "[1]; +30 min", "value": 340, "unit": "beats/min"},
      {"measurement": "MBP (mean blood pressure)", "setting": "[1]; +30 min", "value": 13.7},
      {"measurement": "S-D (difference between systolic and diastolic blood pressure)", "setting": "[1]; +30 min", "value": 8.0},
      {"measurement": "SBP (systolic blood pressure)", "setting": "[1]; +30 min", "value": 19.0},
      {"measurement": "DBP (dyastolic blood pressure)", "setting": "[1]; +60 min", "value": 10.0},
      {"measurement": "HR (heart rate)", "setting": "[1]; +60 min", "value": 300, "unit": "beats/min"},
      {"measurement": "MBP (mean blood pressure)", "setting": "[1]; +60 min", "value": 12.0},
      {"measurement": "S-D (difference between systolic and diastolic blood pressure)", "setting": "[1]; +60 min", "value": 7.0},
      {"measurement": "SBP (systolic blood pressure)", "setting": "[1]; +60 min", "value": 17.0},
      {"measurement": "DBP (dyastolic blood pressure)", "setting": "[1]; +120 min", "value": 11.5},
      {"measurement": "HR (heart rate)", "setting": "[1]; +120 min", "value": 360, "unit": "beats/min"},
      {"measurement": "MBP (mean blood pressure)", "setting": "[1]; +120 min", "value": 13.5},
      {"measurement": "S-D (difference between systolic and diastolic blood pressure)", "setting": "[1]; +120 min", "value": 6.0},
      {"measurement": "SBP (systolic blood pressure)", "setting": "[1]; +120 min", "value": 17.5},
      {"measurement": "DBP (dyastolic blood pressure)", "setting": "[1]; +180 min", "value": 8.0},
      {"measurement": "HR (heart rate)", "setting": "[1]; +180 min", "value": 400, "unit": "beats/min"},
      {"measurement": "MBP (mean blood pressure)", "setting": "[1]; +180 min", "value": 9.8},
      {"measurement": "S-D (difference between systolic and diastolic blood pressure)", "setting": "[1]; +180 min", "value": 5.5},
      {"measurement": "SBP (systolic blood pressure)", "setting": "[1]; +180 min", "value": 13.5},
      {"measurement": "DBP (dyastolic blood pressure)", "setting": "[1]; +240 min", "value": 6.0},
      {"measurement": "HR (heart rate)", "setting": "[1]; +240 min", "value": 420, "unit": "beats/min"},
      {"measurement": "MBP (mean blood pressure)", "setting": "[1]; +240 min", "value": 7.5},
      {"measurement": "S-D (difference between systolic and diastolic blood pressure)", "setting": "[1]; +240 min", "value": 4.5},
      {"measurement": "SBP (systolic blood pressure)", "setting": "[1]; +240 min", "value": 10.5},
      {"measurement": "normal respiratory function and other vital parameters", "setting": "[2]", "value": "not affected"},
      {"measurement": "pathological modification of the arterial pressure", "setting": "[2]", "value": "not observed"},
      {"measurement": "tolerance of oral treatment", "setting": "[2]", "value": "well tolerated"},
      {"measurement": "sinus bradycardia", "setting": "[2]; two subjects (n. 3, 4)", "value": "moderate but definite sinus bradycardia"}
    ]}
  ]
}
